Values after ≈ are worked out from the molar mass of the structure shown.
How the values were obtained:
[1] = system: Streptococcus pneumoniae; experiment: Antibacterial activity against Streptococcus pneumoniae ATCC 49619 after 18 to 24 hrs by alamar Blue assay; type: functional
[2] = system: Streptococcus pneumoniae; experiment: Antibacterial activity against Streptococcus pneumoniae ATCC 51916 after 18 to 24 hrs by alamar Blue assay; type: functional
[3] = system: Streptococcus pneumoniae; experiment: Antibacterial activity against Streptococcus pneumoniae ATCC 700674 after 18 to 24 hrs by alamar Blue assay; type: functional
[4] = system: Streptococcus pneumoniae; experiment: Antibacterial activity against Streptococcus pneumoniae ATCC BAA-255 after 18 to 24 hrs by alamar Blue assay; type: functional
[5] = system: Streptococcus pneumoniae; experiment: Antibacterial activity against Streptococcus pneumoniae ATCC 700669 after 18 to 24 hrs by alamar Blue assay; type: functional
[6] = system: Staphylococcus aureus; experiment: Antibacterial activity against Staphylococcus aureus ATCC 13709 after 18 to 24 hrs by alamar Blue assay in presence of 20% heat inactivated mouse serum; type: functional
[7] = system: Streptococcus pneumoniae; experiment: Antibacterial activity against Streptococcus pneumoniae ATCC 700904 after 18 to 24 hrs by alamar Blue assay; type: functional
[8] = system: Streptococcus pneumoniae; experiment: Antibacterial activity against Streptococcus pneumoniae ATCC 700676 after 18 to 24 hrs by alamar Blue assay; type: functional
[9] = system: Streptococcus pneumoniae; experiment: Antibacterial activity against Streptococcus pneumoniae ATCC 700677 after 18 to 24 hrs by alamar Blue assay; type: functional
[10] = system: Streptococcus pneumoniae; experiment: Antibacterial activity against Streptococcus pneumoniae ATCC 700671 after 18 to 24 hrs by alamar Blue assay; type: functional
[11] = system: Streptococcus pneumoniae; experiment: Antibacterial activity against Streptococcus pneumoniae ATCC 700675 after 18 to 24 hrs by alamar Blue assay; type: functional
[12] = system: Streptococcus pneumoniae; experiment: Antibacterial activity against Streptococcus pneumoniae after 18 to 24 hrs by alamar Blue assay; type: functional
[13] = system: Staphylococcus aureus; experiment: Antibacterial activity against Staphylococcus aureus ATCC 13709 after 18 to 24 hrs by alamar Blue assay; type: functional
[14] = system: Staphylococcus aureus; experiment: Antibacterial activity against TMP-resistant Staphylococcus aureus expressing DHFR F99Y mutant after 18 to 24 hrs by alamar Blue assay; type: functional
[15] = Selectivity ratio of Ki for human DHFR to Ki for Staphylococcus aureus DHFR
[16] = system: Staphylococcus aureus; experiment: animal or person; conditions: ATCC 13709, in Mus musculus, iv, 24 h, read-out: PD50
Description: Antibacterial activity against Staphylococcus aureus ATCC 13709 infected in iv dosed BALB/c mouse septicemia model assessed as protection from lethal infection after 24 hrs

[17] = AUClast in BALB/c mouse at 5 mg/kg, iv; type: ADME, organism-based; set-up: dose 5 mg/kg, route intravenous, time 0 - last; conditions: plasma
[18] = Plasma concentration in BALB/c mouse at 5 mg/kg, iv measured at 2 mins by LC-MS/MS analysis; type: ADME, organism-based; set-up: dose 5 mg/kg, route intravenous
[19] = system: Staphylococcus aureus; experiment: Ratio of iclaprim MIC to compound MIC for TMP-resistant Staphylococcus aureus expressing DHFR F99Y mutant; type: functional
[20] = Terminal half life in BALB/c mouse at 5 mg/kg, iv; type: ADME, organism-based; set-up: dose 5 mg/kg, route intravenous; conditions: in vivo, read-out: beta t1/2 (converted)
[21] = Apparent volume of distribution in BALB/c mouse at 5 mg/kg, iv; type: ADME, organism-based; set-up: dose 5 mg/kg, route intravenous; conditions: in vivo, read-out: Vz
[22] = Total clearance in BALB/c mouse at 5 mg/kg, iv; type: ADME, organism-based; set-up: dose 5 mg/kg, route intravenous; conditions: in vivo
[23] = biological target: T1, Dihydrofolate reductase (Homo sapiens, UniProt P00374); experiment: Inhibition of human DHFR using dihydrofolate as substrate preincubated for 10 mins followed by substrate addition by spectrophotometric analysis in presence of NADPH
T1 sequence (P00374 whole entry): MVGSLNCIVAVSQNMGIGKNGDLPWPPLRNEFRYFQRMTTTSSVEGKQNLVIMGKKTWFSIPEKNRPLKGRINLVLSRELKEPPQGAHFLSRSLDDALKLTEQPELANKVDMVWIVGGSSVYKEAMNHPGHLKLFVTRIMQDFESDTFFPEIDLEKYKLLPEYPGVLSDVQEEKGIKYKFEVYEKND

[24] = biological target: Dihydrofolate reductase (Staphylococcus aureus, UniProt P0A017); experiment: Inhibition of Staphylococcus aureus DHFR using dihydrofolate as substrate preincubated for 10 mins followed by substrate addition by spectrophotometric analysis in presence of NADPH
Dihydrofolate reductase (Staphylococcus aureus, UniProt P0A017), sequence (P0A017 whole entry): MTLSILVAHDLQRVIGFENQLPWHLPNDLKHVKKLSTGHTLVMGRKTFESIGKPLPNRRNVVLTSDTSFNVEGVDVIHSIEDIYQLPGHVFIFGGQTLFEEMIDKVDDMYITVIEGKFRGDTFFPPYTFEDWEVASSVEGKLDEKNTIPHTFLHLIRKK

Structure (SMILES)	MIC [6] [µg/mL]	MIC [13] [µg/mL]	MIC [14] [µg/mL]	Ratio Ki [15]	Ki [23] [nM]	Ki [24] [nM]	also measured
COc1cc(Cc2cnc(N)nc2N)c2c(c1OC)OC(C1CC1)C=C2 (stereo not drawn)	0.125	0.125 (≈ 0.353 µM)	–	–	–	–	MIC [1]: 0.125 µg/mL (≈ 0.353 µM); MIC [2]: 1 µg/mL (≈ 2.82 µM); MIC [3]: 8 µg/mL (≈ 22.6 µM); MIC [4]: ≤ 0.5 µg/mL; MIC [5]: 8 µg/mL (≈ 22.6 µM); MIC [7]: 4 µg/mL (≈ 11.3 µM); MIC [8]: ≤ 0.5 µg/mL; MIC [9]: ≤ 0.5 µg/mL; MIC [10]: 16 µg/mL (≈ 45.1 µM); MIC [11]: ≤ 0.5 µg/mL; MIC50 [12]: ≤ 0.5 µg/mL; MIC90 [12]: 8 µg/mL (≈ 22.6 µM)
COc1cc2nc(-c3nccs3)n(-c3cc4nc(N)nc(N)c4cc3Cl)c2cc1OC	–	0.125 (≈ 0.275 µM)	2 (≈ 4.41 µM)	29000	–	–	–
Cc1cc2nc(-c3nccs3)n(-c3ccc4c(N)nc(N)nc4c3)c2cc1C	0.125	0.015 (≈ 0.0387 µM)	0.25 (≈ 0.645 µM)	–	–	–	MIC [1]: 0.25 µg/mL (≈ 0.645 µM); ED50 [16]: 2 mg/kg; MIC [2]: ≤ 0.5 µg/mL; AUC(0-t) [17]: 2400 ng·h/mL; MIC [3]: 8 µg/mL (≈ 20.6 µM); MIC [4]: ≤ 0.5 µg/mL; MIC [5]: 8 µg/mL (≈ 20.6 µM); concentration at 2 min [18]: 12700 ng/mL; Ratio [19]: 8; MIC [7]: 4 µg/mL (≈ 10.3 µM); half-life [20]: 1.4 h; MIC [8]: ≤ 0.5 µg/mL; MIC [9]: ≤ 0.5 µg/mL; MIC [10]: 32 µg/mL (≈ 82.6 µM); MIC [11]: ≤ 0.5 µg/mL; Vd [21]: 4.4 L/kg; clearance [22]: 35 mL/min/kg; MIC50 [12]: ≤ 0.5 µg/mL; MIC90 [12]: 8 µg/mL (≈ 20.6 µM)
Cc1cc2nc(-c3nccs3)n(-c3cc4nc(N)nc(N)c4cc3Cl)c2cc1C	–	0.125 (≈ 0.296 µM)	0.25 (≈ 0.593 µM)	690	–	–	MIC [1]: 0.125 µg/mL (≈ 0.296 µM); MIC [2]: ≤ 0.5 µg/mL; MIC [3]: 4 µg/mL (≈ 9.48 µM); MIC [4]: ≤ 0.5 µg/mL; MIC [5]: 4 µg/mL (≈ 9.48 µM); MIC [7]: 1 µg/mL (≈ 2.37 µM); MIC [8]: ≤ 0.5 µg/mL; MIC [9]: ≤ 0.5 µg/mL; MIC [10]: 4 µg/mL (≈ 9.48 µM); MIC [11]: ≤ 0.5 µg/mL; MIC50 [12]: ≤ 0.5 µg/mL; MIC90 [12]: 4 µg/mL (≈ 9.48 µM)
Cc1cc2nc(-c3cscn3)n(-c3ccc4c(N)nc(N)nc4c3)c2cc1C	2	2 (≈ 5.16 µM)	16 (≈ 41.3 µM)	11500	1100	0.096	–
COc1cc2nc(-c3ccccn3)n(-c3ccc4c(N)nc(N)nc4c3)c2cc1OC	16	4 (≈ 9.67 µM)	> 64	2300	841	0.36	–
COc1cc(Cc2cnc(N)nc2N)cc(OC)c1OC [TRIMETHOPRIM]	–	–	–	–	–	–	MIC [1]: 4 µg/mL (≈ 13.8 µM); MIC [2]: > 64 µg/mL; MIC [3]: > 64 µg/mL; MIC [4]: 0.5 µg/mL (≈ 1.72 µM); MIC [5]: > 64 µg/mL; MIC [7]: > 64 µg/mL; MIC [8]: 4 µg/mL (≈ 13.8 µM); MIC [9]: 4 µg/mL (≈ 13.8 µM); MIC [10]: > 64 µg/mL; MIC [11]: 8 µg/mL (≈ 27.6 µM); MIC50 [12]: 8 µg/mL (≈ 27.6 µM); MIC90 [12]: > 64 µg/mL
Cc1cc2nc(C3CCCO3)n(-c3ccc4c(N)nc(N)nc4c3)c2cc1C (stereo not drawn)	> 16	0.5 (≈ 1.34 µM)	16 (≈ 42.7 µM)	–	749	0.2	–
Cc1cc2nc(-c3ccsc3)n(-c3ccc4c(N)nc(N)nc4c3)c2cc1C	–	0.03 (≈ 0.0776 µM)	2 (≈ 5.17 µM)	–	–	–	–
Cc1cc2nc(C3CC3)n(-c3ccc4c(N)nc(N)nc4c3)c2cc1C	–	0.5 (≈ 1.45 µM)	8 (≈ 23.2 µM)	–	–	–	–
Cc1cc2nc(-c3cccnc3)n(-c3ccc4c(N)nc(N)nc4c3)c2cc1C	2	0.5 (≈ 1.31 µM)	32 (≈ 83.9 µM)	> 1250	1560	0.26	–
Cc1cc2nc(-c3cccn3C)n(-c3ccc4c(N)nc(N)nc4c3)c2cc1C	32	8 (≈ 20.9 µM)	64 (≈ 167 µM)	–	> 5000	4	–
Cc1cc2nc(-c3ccncc3)n(-c3ccc4c(N)nc(N)nc4c3)c2cc1C	0.5	0.125 (≈ 0.328 µM)	8 (≈ 21 µM)	–	437	0.026	–
COc1cc2nc(-c3ccco3)n(-c3cc4nc(N)nc(N)c4cc3Cl)c2cc1OC	0.5	0.5 (≈ 1.14 µM)	8 (≈ 18.3 µM)	–	610	0.024	–
Cc1cc2nc(-c3ccco3)n(-c3ccc4c(N)nc(N)nc4c3)c2cc1C	0.125	0.015 (≈ 0.0405 µM)	1 (≈ 2.7 µM)	–	943	0.007	–
